According to PubChem BioAssay AID328 (DTP/NCI, 2004):
Several values for one entry are separate records, joined by “and”; a condition that tells them apart may be missing. Equal entries are not always repeated. Toxic doses and inconclusive results are not listed.

Test system: BDF1 mice, P388 leukemia ip, median survival T/C
Assay: NCI In Vivo Anticancer Drug Screen. Data for tumor model P388 Leukemia (intraperitoneal) in B6D2F1 (BDF1) mice
Details: endpoint: median survival time, higher = longer survival
Summary of the method: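 Survival ratio, drug arm over vehicle arm, in mice with a transplanted tumour.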

[1] = dose: 100.0 mg/kg/injection, schedule: Q01DX001 (ip), vehicle: Klucel (hydroxypropylcellulose) (HPC)
[2] = dose: 100.0 mg/kg/injection, schedule: Q04DX003 (ip), vehicle: Klucel (hydroxypropylcellulose) (HPC)
[3] = dose: 200.0 mg/kg/injection, schedule: Q01DX001 (ip), vehicle: Klucel (hydroxypropylcellulose) (HPC)
[4] = dose: 200.0 mg/kg/injection, schedule: Q04DX003 (ip), vehicle: Klucel (hydroxypropylcellulose) (HPC)
[5] = dose: 400.0 mg/kg/injection, schedule: Q01DX001 (ip), vehicle: Klucel (hydroxypropylcellulose) (HPC)
[6] = dose: 400.0 mg/kg/injection, schedule: Q04DX003 (ip), vehicle: Klucel (hydroxypropylcellulose) (HPC)
[7] = dose: 25.0 mg/kg/injection, schedule: Q01DX009 (ip), vehicle: saline with Tween-80
[8] = dose: 50.0 mg/kg/injection, schedule: Q01DX009 (ip), vehicle: saline with Tween-80
[9] = dose: 6.25 mg/kg/injection, schedule: Q01DX009 (ip), vehicle: water
[10] = dose: 12.5 mg/kg/injection, schedule: Q01DX009 (ip), vehicle: water
[11] = dose: 25.0 mg/kg/injection, schedule: Q01DX009 (ip), vehicle: water
[12] = dose: 25.0 mg/kg/injection, schedule: Q04DX003 (ip), vehicle: water
[13] = dose: 50.0 mg/kg/injection, schedule: Q04DX003 (ip), vehicle: water
[14] = dose: 50.0 mg/kg/injection, schedule: Q04DX003 (ip), vehicle: saline with Tween-80
[15] = dose: 100.0 mg/kg/injection, schedule: Q04DX003 (ip), vehicle: saline with Tween-80
[16] = dose: 100.0 mg/kg/injection, schedule: Q01DX009 (ip), vehicle: saline with Tween-80
[17] = dose: 200.0 mg/kg/injection, schedule: Q01DX009 (ip), vehicle: saline with Tween-80
[18] = dose: 200.0 mg/kg/injection, schedule: Q04DX003 (ip), vehicle: saline with Tween-80
[19] = dose: 400.0 mg/kg/injection, schedule: Q04DX003 (ip), vehicle: saline with Tween-80

For `CC(=O)c1ccccc1Br`, the T/C [1] was 95 % of control, the T/C [2] was 95 % of control and the T/C [3] was 108 % of control. The T/C [4] was 100 % of control, the T/C [5] was 100 % of control and the T/C [6] was 100 % of control.
For `O=C1C(NCC(O)CO)=C(N2CC2)C(=O)C(NCC(O)CO)=C1N1CC1` (configuration not stated), the T/C (dose: 0.5 mg/kg/injection, schedule: Q01DX009 (ip), vehicle: saline) was 98 % of control, the T/C (dose: 1.5 mg/kg/injection, schedule: Q01DX009 (ip), vehicle: saline) was 233 % of control and the T/C (dose: 2.0 mg/kg/injection, schedule: Q01DX009 (ip), vehicle: saline) was 116 % of control and 213 % of control. The T/C (dose: 4.0 mg/kg/injection, schedule: Q01DX009 (ip), vehicle: saline) was 241 % of control and 243 % of control and the T/C (dose: 6.0 mg/kg/injection, schedule: Q01DX009 (ip), vehicle: saline) was 107 % of control.
In the case of `O=[N+]([O-])c1ccc(S(=O)(=O)c2ccccc2)c2nonc12`, the T/C [7] is reported as 107 % of control and the T/C [8] is reported as 98 % of control.
For `O=C1/C(=C\c2ccccc2)C(Br)c2ccccc21` (configuration not stated), the T/C (dose: 1.56 mg/kg/injection, schedule: Q01DX009 (ip), vehicle: water) was 87 % of control, the T/C (dose: 3.12 mg/kg/injection, schedule: Q01DX009 (ip), vehicle: water) was 108 % of control and the T/C [9] was 108 % of control. For the same molecule, the T/C (dose: 6.25 mg/kg/injection, schedule: Q04DX003 (ip), vehicle: water) was 100 % of control, the T/C [10] was 110 % of control and the T/C (dose: 12.5 mg/kg/injection, schedule: Q04DX003 (ip), vehicle: water) was 105 % of control. For the same molecule, the T/C [11] was 110 % of control, the T/C [12] was 105 % of control and the T/C [13] was 91 % of control.
With `CC1CC(C)(C)N=C(C(Cc2ccc(Br)cc2)c2ccccc2)O1` (configuration not stated) the T/C (dose: 100.0 mg/kg/injection, schedule: Q01DX001 (ip), vehicle: saline sonified) was 95 % of control, the T/C (dose: 200.0 mg/kg/injection, schedule: Q01DX001 (ip), vehicle: saline sonified) was 110 % of control and the T/C (dose: 400.0 mg/kg/injection, schedule: Q01DX001 (ip), vehicle: saline sonified) was 110 % of control.
In the case of `NC(=O)N/N=C1\CCCC(CCC(=O)O)C1` (configuration not stated), the T/C [1] is reported as 96 % of control, the T/C [3] is reported as 100 % of control and the T/C [5] is reported as 100 % of control.
For `CC(C)(C)c1ccc(C(=O)C2CC2)cc1`, the T/C (dose: 25.0 mg/kg/injection, schedule: Q04DX003 (ip), vehicle: saline with Tween-80) was 90 % of control, the T/C [14] was 95 % of control and the T/C [15] was 86 % of control.
`C[n+]1ccc(/C=C/c2ccc(Cl)c(Cl)c2)cc1` was tested, and the T/C (dose: 1.5 mg/kg/injection, schedule: Q01DX009 (ip), vehicle: Klucel (hydroxypropylcellulose) (HPC)) was 95 % of control, the T/C (dose: 3.0 mg/kg/injection, schedule: Q01DX009 (ip), vehicle: Klucel (hydroxypropylcellulose) (HPC)) was 109 % of control and the T/C (dose: 3.0 mg/kg/injection, schedule: Q04DX003 (ip), vehicle: Klucel (hydroxypropylcellulose) (HPC)) was 100 % of control. For the same molecule, the T/C (dose: 6.0 mg/kg/injection, schedule: Q04DX003 (ip), vehicle: Klucel (hydroxypropylcellulose) (HPC)) was 100 % of control.
For `O=C(O)c1csc(-c2csc(CCNC(=O)C(F)(F)F)n2)n1`, the T/C [8] was 94 % of control, the T/C [16] was 93 % of control and the T/C [17] was 103 % of control.
In the case of `Cc1ccccc1/C=C1\CC(C)(C)c2ccccc2C1=O`, the T/C (dose: 100.0 mg/kg/injection, schedule: Q01DX009 (ip), vehicle: Klucel (hydroxypropylcellulose) (HPC)) is reported as 100 % of control, the T/C [2] is reported as 95 % of control and the T/C (dose: 200.0 mg/kg/injection, schedule: Q01DX009 (ip), vehicle: Klucel (hydroxypropylcellulose) (HPC)) is reported as 95 % of control. For the same molecule, the T/C [4] was 95 % of control, the T/C (dose: 400.0 mg/kg/injection, schedule: Q01DX009 (ip), vehicle: Klucel (hydroxypropylcellulose) (HPC)) was 104 % of control and the T/C [6] was 95 % of control.
In the case of `O=C1CCC2N1CCC1CCCCN12` (configuration not stated), the T/C [9] is reported as 98 % of control, the T/C [10] is reported as 100 % of control and the T/C [11] is reported as 86 % of control. The T/C [12] was 107 % of control, the T/C (dose: 50.0 mg/kg/injection, schedule: Q01DX009 (ip), vehicle: water) was 94 % of control and the T/C [13] was 118 % of control. The T/C (dose: 100.0 mg/kg/injection, schedule: Q01DX009 (ip), vehicle: water) was 91 % of control, the T/C (dose: 100.0 mg/kg/injection, schedule: Q04DX003 (ip), vehicle: water) was 107 % of control and the T/C (dose: 200.0 mg/kg/injection, schedule: Q04DX003 (ip), vehicle: water) was 109 % of control.
In the case of `O=C1C(=O)c2ccccc2C([O-])=C1[n+]1ccccc1`, the T/C [14] is reported as 109 % of control, the T/C [15] is reported as 95 % of control and the T/C [18] is reported as 90 % of control.
For `COc1ccccc1C(c1ccccc1OC)N(C)C(C)(C)CO`, the T/C (dose: 6.25 mg/kg/injection, schedule: Q01DX009 (ip), vehicle: saline with Tween-80) was 100 % of control, the T/C (dose: 12.5 mg/kg/injection, schedule: Q01DX009 (ip), vehicle: saline with Tween-80) was 91 % of control and the T/C [7] was 91 % of control.
`CCCCCCCCCCCCCCCCS(=O)(=O)CCO` was tested, and the T/C [15] was 104 % of control and the T/C [18] was 91 % of control.
For `CCCCCCCCCCCCCCSC1CC(=O)OC1=O` (configuration not stated), the T/C [8] was 98 % of control, the T/C [16] was 91 % of control and the T/C [17] was 96 % of control.
For `C(=Nc1ccccc1)c1ccc(C=Nc2ccccc2)cc1`, the T/C [8] was 110 % of control, the T/C [16] was 105 % of control and the T/C [15] was 104 % of control. The T/C [17] was 100 % of control, the T/C [18] was 109 % of control and the T/C [19] was 100 % of control.
`CC(C)(C)OP(=O)(OC(C)(C)C)c1ccccc1` was tested, and the T/C [8] was 118 % of control and the T/C [16] was 98 % of control.
`c1ccc(SCN2CCN(CSc3ccccc3)CC2)cc1` was tested, and the T/C (dose: 50.0 mg/kg/injection, schedule: Q01DX001 (ip), vehicle: saline) was 95 % of control and the T/C (dose: 100.0 mg/kg/injection, schedule: Q01DX001 (ip), vehicle: saline) was 109 % of control.
For `O=C1C=C2C(=CCOC2O)O1` (configuration not stated), the T/C (dose: 0.01 mg/kg/injection, schedule: Q01DX009 (ip), vehicle: other) was 104 % of control, the T/C (dose: 0.03 mg/kg/injection, schedule: Q01DX009 (ip), vehicle: other) was 111 % of control and the T/C (dose: 0.1 mg/kg/injection, schedule: Q01DX009 (ip), vehicle: other) was 104 % of control. For the same molecule, the T/C (dose: 3.0 mg/kg/injection, schedule: Q01DX009 (ip), vehicle: other) was 158 % of control.
With `O=S1(=O)C=C(c2ccccc2)C1` the T/C [8] was 108 % of control and the T/C [16] was 107 % of control.
In the case of `O=NN(CCCl)C(=O)Nc1cc2c3ccccc3ccc2c2ccccc12`, the T/C (dose: 50.0 mg/kg/injection, schedule: Q01DX009 (ip), vehicle: Klucel (hydroxypropylcellulose) (HPC)) is reported as 121 % of control.
With `S=P(N1CCOCC1)(N1CC1)N1CC1` the T/C (dose: 2.5 mg/kg/injection, schedule: Q01DX010 (ip), vehicle: saline) was 109 % of control and the T/C (dose: 20.0 mg/kg/injection, schedule: Q01DX010 (ip), vehicle: saline) was 155 % of control.
With `CCn1c(Cl)c(/C=N/Nc2ccc([N+](=O)[O-])cc2[N+](=O)[O-])c2ccccc21` the T/C (dose: 100.0 mg/kg/injection, schedule: Q04DX002 (ip), vehicle: Klucel (hydroxypropylcellulose) (HPC)) was 92 % of control, the T/C (dose: 200.0 mg/kg/injection, schedule: Q04DX002 (ip), vehicle: Klucel (hydroxypropylcellulose) (HPC)) was 92 % of control and the T/C (dose: 400.0 mg/kg/injection, schedule: Q04DX002 (ip), vehicle: Klucel (hydroxypropylcellulose) (HPC)) was 88 % of control.
`O=C1c2cc(Cl)ccc2-c2c(Cl)cc(Cl)cc21` was tested, and the T/C [15] was 91 % of control, the T/C [17] was 87 % of control and the T/C [18] was 100 % of control. The T/C [19] was 91 % of control.
`COc1ccc(/C=C2\CCCC3=C2NC(=S)NC3c2ccc(OC)cc2)cc1` (configuration not stated) was tested, and the T/C [8] was 107 % of control, the T/C [16] was 97 % of control and the T/C [17] was 91 % of control.
For `Cc1ccc(NS(=O)(=O)c2ccc(F)cc2)cc1Cl`, the T/C [2] was 109 % of control, the T/C [4] was 100 % of control and the T/C [6] was 104 % of control.
With `O=C(CN1CCOCC1)N1CCOCC1` the T/C (dose: 100.0 mg/kg/injection, schedule: Q01DX009 (ip), vehicle: saline) was 90 % of control, the T/C (dose: 100.0 mg/kg/injection, schedule: Q04DX003 (ip), vehicle: saline) was 100 % of control and the T/C (dose: 200.0 mg/kg/injection, schedule: Q01DX009 (ip), vehicle: saline) was 100 % of control. The T/C (dose: 200.0 mg/kg/injection, schedule: Q04DX003 (ip), vehicle: saline) was 95 % of control, the T/C (dose: 400.0 mg/kg/injection, schedule: Q01DX009 (ip), vehicle: saline) was 100 % of control and the T/C (dose: 400.0 mg/kg/injection, schedule: Q04DX003 (ip), vehicle: saline) was 104 % of control.
